Measured values taken from patent US20250388575A1, “HETEROBIFUNCTIONAL COMPOUNDS AND METHODS OF TREATING DISEASE” (Halda Therapeutics OpCo, Inc., priority 2022, published 2025).
Where two headings read alike, the source gives them in different places.

Tests used:
[1] = test system: T47D cells; test: Cellular growth inhibition assay for T47D cells, CellTiter-Glo; type: cell-based, human; settings: 72 hours treatment, CellTiter-Glo 2.0
Method: T47D cells were purchased from American Type Cell Culture (ATCC Cat #HTB-133) and then seeded on poly-D-lysine coated, black clear-bottom 384-well plates at 3000/well in 25 μL Dulbecco's Modified Eagle Medium (DMEM) supplemented with 10% w/w Fetal bovine serum (FBS), 0.2 units/mL recombinant human insulin (Gibco Cat #12585014), and 1% w/w Pen-Strep. Pen-Strep is a commercially available mixture of penicillin G and streptomycin, which is used in mammalian cell culture media to prevent bacterial contamination. Dulbecco's Modified Eagle Medium (DMEM) supplemented with 10% w/w fetal bovine serum (FBS), 0.2 units/mL recombinant human insulin, and 1% w/w Pen-Strep is herein referred to as Treatment Medium. Following seeding of cells in the plates, the plates were spun at 300×g for 30 seconds, then equilibrated to room temperature for 30 minutes, and then deposited in a humidified tissue culture incubator maintained at 37° C. with 5% CO2.
At 24 hours after seeding of the cells, dilutions of test compound were prepared in DMSO and dissolved in Treatment Medium, to achieve a final DMSO concentration of 0.5% w/w, thereby providing the Test Compound Solution. A 25 μL aliquot of the Test Compound Solution was added to cells in the well plates. An equal volume of a solution containing DMSO and Treatment Medium was used as a negative control. Following treatment of cells with Test Compound Solution or said equal volume of a solution containing DMSO and Treatment Medium, the plates were spun at 300×g for 30 seconds, and then left in an incubator for 72 hours.
At the end of the treatment duration, cell viability was quantified with CellTiter-Glo 2.0 reagent (Promega Cat #G9243). For this purpose, plates were equilibrated to room temperature for 30 minutes, and then 25 μL of CellTiter-Glo 2.0 reagent was added to cells in the plate wells. Plates were then agitated on a shaker for two minutes at 500 rpm and subsequently incubated at room temperature for 10 minutes. Following incubation, the plates were spun at 3000×g for 30 seconds, then sealed with an optical adhesive cover, and luminescence readings were measured with an EnVision Plate Reader (Perkin Elmer).
Data was normalized using zero luminescence for baseline. A four-parameter non-linear regression curve fit was applied to dose-response data in GraphPad Prism data analysis software to determine the half-maximal growth inhibitory concentration (GI50) for each test compound.

[2] = test system: T-Rex 293 cell line SC3 cells lacking increased expression of androgen receptor protein; test: Cellular growth inhibition, T-Rex 293 SC3 cells lacking increased androgen receptor expression (no doxycycline), CellTiter-Glo; type: cell-based; settings: T-Rex 293 SC3 cells lacking increased androgen receptor expression (not exposed to doxycycline), 72 hours, CellTiter-Glo; read-out: GI50
How it was run: (§1)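 SC3, a T-Rex 293 clone with doxycycline-inducible wild-type androgen receptor, was seeded in phenol red-free DMEM with 10% charcoal-dextran FBS, with or without 10 ng/mL doxycycline. Compound added at 24 h (0.5% DMSO) for 72 h at 37° C. CellTiter-Glo 2.0 luminescence; GI50 from four-parameter fit.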

[3] = test system: VCaP cells; test: Cellular growth inhibition assay for VCaP cells, CellTiter-Glo; type: cell-based, human; settings: VCaP cells, 72 hours, CellTiter-Glo, read-out: GI50
How it was run: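 GI50 values come from four-parameter curve fits of luminescence data normalized to a zero baseline. Compound, in medium with 0.5% DMSO, was added one day after plating and left for 72 h before CellTiter-Glo 2.0 addition.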

[4] = test system: T-Rex 293 cell line SC3 cells having increased expression of androgen receptor protein; test: Cellular growth inhibition, T-Rex 293 SC3 cells with increased androgen receptor expression (doxycycline), CellTiter-Glo; type: cell-based; settings: T-Rex 293 SC3 cells with increased androgen receptor expression (exposed to 10 ng/mL doxycycline), 72 hours, CellTiter-Glo; read-out: GI50
How it was run: as §1

GI50 [1]	GI50 [3]	GI50 ([1]; Homo sapiens)	GI50 ([3]; Homo sapiens)	Structure (SMILES)	GI50 [2]	GI50 [4]
1500 to 3000 nM	< 500 nM	–	–	Cn1cc(-c2cc(C(C)(C)O)ccc2Oc2cc(F)c(CCC3CCN(c4ccc(C(=O)N[C@H]5CC[C@H](Oc6ccc(C#N)c(Cl)c6)CC5)nn4)CC3)c(F)c2)c2cc[nH]c2c1=O [I-114]	> 3000 nM	< 500 nM
< 500 nM	< 500 nM	–	–	Cn1cc(-c2cc(C(C)(C)O)ccc2Oc2c(F)cc(CCC3CCN(c4ccc(C(=O)N[C@H]5CC[C@H](Oc6ccc(C#N)c(Cl)c6)CC5)nn4)CC3)cc2F)c2cc[nH]c2c1=O [I-115]	> 3000 nM	< 500 nM
< 500 nM	< 500 nM	–	–	Cn1cc(-c2cc(C(C)(C)O)ccc2Oc2cc(F)c(CCC3CCN(c4ccc(C(=O)N[C@H]5CC[C@H](Oc6ccc(C#N)c(Cl)c6)CC5)nn4)CC3)cc2F)c2cc[nH]c2c1=O [I-116]	500 to 1500 nM	< 500 nM
–	–	< 500 nM	< 500 nM	Cn1cc(-c2cc(C(C)(C)O)ccc2Oc2ccc(CN3CC4(C3)CN(c3ccc(C(=O)N[C@H]5CC[C@H](Oc6ccc(C#N)c(Cl)c6)CC5)nn3)C4)cc2)c2cc[nH]c2c1=O [I-123]	500 to 1500 nM	< 500 nM
< 500 nM	< 500 nM	–	–	Cn1cc(-c2cc(C(C)(C)O)ccc2Oc2ccc(CCC3CC4(C3)CN(c3ccc(C(=O)N[C@H]5CC[C@H](Oc6ccc(C#N)c(Cl)c6)CC5)nn3)C4)cc2)c2cc[nH]c2c1=O [I-126]	< 500 nM	< 500 nM
< 500 nM	< 500 nM	–	–	Cn1cc(-c2cc(C(C)(C)O)ccc2Oc2ccc(CCCC3CN(c4ccc(C(=O)N[C@H]5CC[C@H](Oc6ccc(C#N)c(Cl)c6)CC5)nn4)C3)cc2)c2cc[nH]c2c1=O [I-127]	500 to 1500 nM	< 500 nM
< 500 nM	< 500 nM	–	–	Cn1cc(-c2cc(C(C)(C)O)ccc2Oc2ccc(CCCC3C4CN(c5ccc(C(=O)N[C@H]6CC[C@H](Oc7ccc(C#N)c(Cl)c7)CC6)nn5)CC34)cc2)c2cc[nH]c2c1=O (some centres unmarked) [I-128]	< 500 nM	< 500 nM
< 500 nM	< 500 nM	–	–	Cn1cc(-c2cc(C(C)(C)O)ccc2Oc2ccc(CCC3CN(c4ccc(C(=O)N[C@H]5CC[C@H](Oc6ccc(C#N)c(Cl)c6)CC5)nn4)C3)cc2)c2cc[nH]c2c1=O [I-129]	< 500 nM	< 500 nM
–	–	< 500 nM	< 500 nM	Cn1cc(-c2cc(C(C)(C)O)ccc2Oc2ccc(CC3CC4(CCN(c5ccc(C(=O)N[C@H]6CC[C@H](Oc7ccc(C#N)c(Cl)c7)CC6)nn5)CC4)C3)cc2)c2cc[nH]c2c1=O [I-130]	< 500 nM	< 500 nM
–	–	< 500 nM	< 500 nM	Cn1cc(-c2cc(C(C)(C)O)ccc2Oc2ccc(CC3CN(c4ccc(C(=O)N[C@H]5CC[C@H](Oc6ccc(C#N)c(Cl)c6)CC5)nn4)C3)cc2)c2cc[nH]c2c1=O [I-131]	< 500 nM	< 500 nM
–	–	< 500 nM	< 500 nM	Cn1cc(-c2cc(C(C)(C)O)ccc2Oc2ccc(CCOC3CCN(c4ccc(C(=O)N[C@H]5CC[C@H](Oc6ccc(C#N)c(Cl)c6)CC5)nn4)CC3)c(F)c2)c2cc[nH]c2c1=O [I-132]	> 3000 nM	< 500 nM
< 500 nM	< 500 nM	–	–	Cn1cc(-c2cc(C(C)(C)O)ccc2Oc2ccc(CCCCC3CN(c4ccc(C(=O)N[C@H]5CC[C@H](Oc6ccc(C#N)c(Cl)c6)CC5)nn4)C3)cc2)c2cc[nH]c2c1=O [I-133]	500 to 1500 nM	< 500 nM
< 500 nM	< 500 nM	–	–	Cn1cc(-c2cc(C(C)(C)O)ccc2Oc2ccc(CCC3C4CN(c5ccc(C(=O)N[C@H]6CC[C@H](Oc7ccc(C#N)c(Cl)c7)CC6)nn5)CC34)cc2)c2cc[nH]c2c1=O (some centres unmarked) [I-134]	> 3000 nM	< 500 nM
–	–	< 500 nM	< 500 nM	Cn1cc(-c2cc(C(C)(C)O)ccc2Oc2ccc(CCCC3CCN(c4ccc(C(=O)N[C@H]5CC[C@H](Oc6ccc(C#N)c(Cl)c6)CC5)nn4)C3)cc2)c2cc[nH]c2c1=O (some centres unmarked) [I-135]	< 500 nM	< 500 nM
< 500 nM	< 500 nM	–	–	Cn1cc(-c2cc(C(C)(C)O)ccc2Oc2ccc(C3CC(N4CCN(c5ccc(C(=O)N[C@H]6CC[C@H](Oc7ccc(C#N)c(Cl)c7)CC6)nn5)CC4)C3)cc2)c2cc[nH]c2c1=O (some centres unmarked) [I-136]	< 500 nM	< 500 nM
–	–	< 500 nM	< 500 nM	CN(C1CCN(c2ccc(C(=O)N[C@H]3CC[C@H](Oc4ccc(C#N)c(Cl)c4)CC3)nn2)CC1)C1CN(c2ccc(Oc3ccc(C(C)(C)O)cc3-c3cn(C)c(=O)c4[nH]ccc34)cc2)C1 [I-140]	< 500 nM	< 500 nM
–	–	< 500 nM	< 500 nM	CN(C1CCN(c2ccc(C(=O)N[C@H]3CC[C@H](Oc4ccc(C#N)c(Cl)c4)CC3)nn2)CC1)C1CN(c2cccc(Oc3ccc(C(C)(C)O)cc3-c3cn(C)c(=O)c4[nH]ccc34)c2F)C1 [I-142]	< 500 nM	< 500 nM
< 500 nM	< 500 nM	–	–	CN(C1CN(c2ccc(Oc3ccc(C(C)(C)O)cc3-c3cn(C)c(=O)c4[nH]ccc34)cc2)C1)C1CN(c2ccc(C(=O)N[C@H]3CC[C@H](Oc4ccc(C#N)c(Cl)c4)CC3)nn2)C1 [I-143]	> 3000 nM	< 500 nM
< 500 nM	< 500 nM	–	–	Cn1cc(-c2cc(C(C)(C)O)ccc2Oc2ccc(N3CC4(CCN(c5ccc(C(=O)N[C@H]6CC[C@H](Oc7ccc(C#N)c(Cl)c7)CC6)nn5)CC4)C3)cc2)c2cc[nH]c2c1=O [I-144]	500 to 1500 nM	< 500 nM
–	–	< 500 nM	< 500 nM	Cn1cc(-c2cc(C(C)(C)O)ccc2Oc2ccc(N3CC(OC4CCN(c5ccc(C(=O)N[C@H]6CC[C@H](Oc7ccc(C#N)c(Cl)c7)CC6)nn5)CC4)C3)cc2)c2cc[nH]c2c1=O [I-146]	< 500 nM	< 500 nM
–	–	< 500 nM	< 500 nM	Cn1cc(-c2cc(C(C)(C)O)ccc2Oc2ccc(N3CC(CC4CCN(c5ccc(C(=O)N[C@H]6CC[C@H](Oc7ccc(C#N)c(Cl)c7)CC6)nn5)CC4)C3)cc2)c2cc[nH]c2c1=O [I-147]	> 3000 nM	< 500 nM
–	–	< 500 nM	< 500 nM	Cn1cc(-c2cc(C(C)(C)O)ccc2Oc2ccc(N3CC(CC4CN(c5ccc(C(=O)N[C@H]6CC[C@H](Oc7ccc(C#N)c(Cl)c7)CC6)nn5)C4)C3)cc2)c2cc[nH]c2c1=O [I-149]	< 500 nM	< 500 nM
–	–	< 500 nM	< 500 nM	Cn1cc(-c2cc(C(C)(C)O)ccc2Oc2ccc(N3CC(OC4CN(c5ccc(C(=O)N[C@H]6CC[C@H](Oc7ccc(C#N)c(Cl)c7)CC6)nn5)C4)C3)cc2)c2cc[nH]c2c1=O [I-150]	< 500 nM	< 500 nM
–	–	< 500 nM	< 500 nM	CCS(=O)(=O)Cc1ccc(Oc2cccc(OCCOC3CCN(c4ncc(C(=O)N[C@H]5CC[C@H](Oc6ccc(C#N)c(Cl)c6)CC5)cn4)CC3)c2)c(-c2cn(C)c(=O)c3[nH]ccc23)c1 [I-152]	< 500 nM	< 500 nM
< 500 nM	< 500 nM	–	–	CCS(=O)(=O)Cc1ccc(Oc2ccc(CCCCC3CCN(c4ccc(C(=O)N[C@H]5CC[C@H](Oc6ccc(C#N)c(Cl)c6)CC5)nn4)CC3)cc2)c(-c2cn(C)c(=O)c3[nH]ccc23)c1 [I-157]	< 500 nM	< 500 nM
< 500 nM	< 500 nM	–	–	CCS(=O)(=O)c1ccc(Oc2ccc(CCC3CCN(c4ccc(C(=O)N[C@H]5CC[C@H](Oc6ccc(C#N)c(Cl)c6)CC5)nn4)CC3)nn2)c(-c2cn(C)c(=O)c3[nH]ccc23)c1 [I-221]	< 500 nM	< 500 nM
